In patent US12234230B2, “Substituted benzyl-triazole compounds for Cbl-b inhibition, and further uses thereof” (Nurix Therapeutics, Inc., priority 2019, dated 2025):

Legend:
Cbl-b = Cbl-b (Homo sapiens (Human), UniProt Q13191); test: Cbl-b displacement assay (Cbl-b inhibition assay), Biological Example 1; format: binding; conditions: 0.125 nM Cbl-b final concentration (Low); read-out: Cbl-b activity IC50 (Low)
Protocol: The ability of candidate compounds to displace a known inhibitor and thereby inhibit Cbl-b activity was measured by monitoring the interaction of Cbl-b with a fluorophore-labeled probe in the presence of the candidate compound.
Following the one hour incubation, the plates were read for TR-FRET signal at 520/620 nm using an Envision plate reader (Perkin Elmer).

[1] = tested on: primary human total T-cells; test: Primary human total T-cell activation (IL-2 secretion, CD25 surface staining), Biological Example 2; conditions: fold change over baseline; for CD25 staining CD3/CD28 0.3 μM / IL-2 secretion CD3/CD28 0.3 μM: 0.3 μM inhibitor; for CD25 staining CD3/CD28 0.3 μM / IL-2 secretion CD3/CD28 0.3 μM / IL-2 secretion CD3/CD28 1 μM / CD25 staining CD3/CD28 1 μM: anti-CD3 and anti-CD28 co-stimulation; for IL-2 secretion CD3/CD28 1 μM / CD25 staining CD3 1 μM / IL-2 secretion CD3 1 μM / CD25 staining CD3/CD28 1 μM: 1 μM inhibitor; for CD25 staining CD3 1 μM / IL-2 secretion CD3 1 μM / CD25 staining CD3 3 μM / IL-2 secretion CD3 3 μM: anti-CD3 stimulation alone; for CD25 staining CD3 3 μM / IL-2 secretion CD3 3 μM: 3 μM inhibitor

Sequence of Cbl-b (Q13191 36-427): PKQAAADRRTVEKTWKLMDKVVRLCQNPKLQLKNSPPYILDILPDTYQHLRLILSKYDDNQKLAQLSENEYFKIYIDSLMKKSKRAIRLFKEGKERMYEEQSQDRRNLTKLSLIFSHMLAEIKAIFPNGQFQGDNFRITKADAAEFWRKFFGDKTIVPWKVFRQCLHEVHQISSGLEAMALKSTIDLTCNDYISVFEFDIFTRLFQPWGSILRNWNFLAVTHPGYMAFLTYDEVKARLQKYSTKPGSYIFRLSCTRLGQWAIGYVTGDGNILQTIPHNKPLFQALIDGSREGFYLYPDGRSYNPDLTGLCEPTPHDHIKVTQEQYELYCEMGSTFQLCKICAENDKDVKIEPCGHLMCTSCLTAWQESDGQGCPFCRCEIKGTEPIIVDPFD

SMILES	IC50 (Cbl-b) [nM]	CD25 staining CD3/CD28 0.3 μM [1]	IL-2 secretion CD3/CD28 0.3 μM [1]	IL-2 secretion CD3/CD28 1 μM [1]	CD25 staining CD3 1 μM [1]	IL-2 secretion CD3 1 μM [1]	CD25 staining CD3 3 μM [1]	IL-2 secretion CD3 3 μM [1]	CD25 staining CD3/CD28 1 μM [1]
C[C@@H]1CN(Cc2cc3c(c(C4CC4)n2)CN(c2cccc([C@]4(c5nncn5C)C[C@@H](C)C4)c2)C3=O)CCC1(F)F [Compound 26, 4-cyclopropyl-6-(((R)-4,4-difluoro-3-methylpiperidin-1-yl)methyl)-2-(3-((1s,3S)-3-methyl-1-(4-methyl-4H-1,2,4-triazol-3-yl)cyclobutyl)phenyl)-2,3-dihydro-1H-pyrrolo[3,4-c]pyridin-1-one]	5 to 20	B (B indicates 1.24-1.39 fold)	C (C indicates <20 fold)	B (B indicates 20-35 fold)	A (A indicates >2.5 fold)	A (A indicates >1.1 fold)	A (A indicates >2.5 fold)	A (A indicates >1.1 fold)	–
CC[C@H]1CN(Cc2cc3c(c(C(F)(F)F)c2)CN(c2cccc([C@]4(c5nncn5C)C[C@@H](C)C4)c2)C3=O)CCO1 [Compound 27, 6-(((S)-2-ethylmorpholino)methyl)-2-(3-((1s,3R)-3-methyl-1-(4-methyl-4H-1,2,4-triazol-3-yl)cyclobutyl)phenyl)-4-(trifluoromethyl)isoindolin-1-one]	5 to 20	B (B indicates 1.24-1.39 fold)	C (C indicates <20 fold)	B (B indicates 20-35 fold)	C (C indicates <1.5 fold)	C (C indicates <0.70 fold)	C (C indicates <1.5 fold)	C (C indicates <0.70 fold)	–
C[C@@H]1CN(Cc2cc3c(c(C4CC4)n2)CN(c2cccc([C@]4(c5nncn5C)C[C@@H](C)C4)c2)C3=O)CCO1 [Compound 29, 4-cyclopropyl-2-(3-((1s,3S)-3-methyl-1-(4-methyl-4H-1,2,4-triazol-3-yl)cyclobutyl)phenyl)-6-(((R)-2-methylmorpholino)methyl)-2,3-dihydro-1H-pyrrolo[3,4-c]pyridin-1-one]	5 to 20	B (B indicates 1.24-1.39 fold)	C (C indicates <20 fold)	B (B indicates 20-35 fold)	A (A indicates >2.5 fold)	A (A indicates >1.1 fold)	B (B indicates 1.5-2.5 fold)	B (B indicates 0.70-1.1 fold)	B (B indicates 1.24-1.39 fold)
C[C@@H]1CN(Cc2cc3c(c(C(F)(F)F)c2)CN(c2cccc([C@]4(c5nncn5C)C[C@@H](O)C4)c2)C3=O)CCC1(F)F [Compound 31, 6-(((R)-4,4-difluoro-3-methylpiperidin-1-yl)methyl)-2-(3-((1s,3S)-3-hydroxy-1-(4-methyl-4H-1,2,4-triazol-3-yl)cyclobutyl)phenyl)-4-(trifluoromethyl)isoindolin-1-one]	5 to 20	–	C (C indicates <20 fold)	C (C indicates <20 fold)	C (C indicates <1.5 fold)	C (C indicates <0.70 fold)	B (B indicates 1.5-2.5 fold)	C (C indicates <0.70 fold)	–
C[C@H]1CCCN(Cc2cc3c(c(C(F)(F)F)c2)CN(c2cccc([C@]4(c5nncn5C)C[C@@H](O)C4)c2)C3=O)C1 [Compound 32, 2-(3-((1s,3R)-3-hydroxy-1-(4-methyl-4H-1,2,4-triazol-3-yl)cyclobutyl)phenyl)-6-(((S)-3-methylpiperidin-1-yl)methyl)-4-(trifluoromethyl)isoindolin-1-one]	5 to 20	–	B (B indicates 20-35 fold)	A (A indicates >35 fold)	A (A indicates >2.5 fold)	A (A indicates >1.1 fold)	A (A indicates >2.5 fold)	A (A indicates >1.1 fold)	–
CO[C@H]1C[C@@](c2cccc(N3Cc4c(cc(CN5CCC(F)(F)[C@H](C)C5)cc4C(F)(F)F)C3=O)c2)(c2nncn2C)C1 [Compound 33, 6-(((R)-4,4-difluoro-3-methylpiperidin-1-yl)methyl)-2-(3-((1s,3S)-3-methoxy-1-(4-methyl-4H-1,2,4-triazol-3-yl)cyclobutyl)phenyl)-4-(trifluoromethyl)isoindolin-1-one]	5 to 20	B (B indicates 1.24-1.39 fold)	C (C indicates <20 fold)	B (B indicates 20-35 fold)	A (A indicates >2.5 fold)	A (A indicates >1.1 fold)	A (A indicates >2.5 fold)	A (A indicates >1.1 fold)	–
C[C@@H]1CN(Cc2cc3c(c(C(F)(F)F)c2)CN(c2cccc([C@]4(c5nncn5C)C[C@H](O)C4)c2)C3=O)CCC1(F)F [Compound 34, 6-(((R)-4,4-difluoro-3-methylpiperidin-1-yl)methyl)-2-(3-(trans-3-hydroxy-1-(4-methyl-4H-1,2,4-triazol-3-yl)cyclobutyl)phenyl)-4-(trifluoromethyl)isoindolin-1-one]	5 to 20	B (B indicates 1.24-1.39 fold)	C (C indicates <20 fold)	A (A indicates >35 fold)	B (B indicates 1.5-2.5 fold)	A (A indicates >1.1 fold)	B (B indicates 1.5-2.5 fold)	A (A indicates >1.1 fold)	B (B indicates 1.24-1.39 fold)
C[C@H]1CCCN(Cc2cc3c(c(C(F)(F)F)c2)CN(c2cccc([C@]4(c5nncn5C)C[C@H](O)C4)c2)C3=O)C1 [Compound 35, 2-(3-((1r,3S)-3-hydroxy-1-(4-methyl-4H-1,2,4-triazol-3-yl)cyclobutyl)phenyl)-6-(((S)-3-methylpiperidin-1-yl)methyl)-4-(trifluoromethyl)isoindolin-1-one]	< 5	B (B indicates 1.24-1.39 fold)	B (B indicates 20-35 fold)	B (B indicates 20-35 fold)	A (A indicates >2.5 fold)	B (B indicates 0.70-1.1 fold)	A (A indicates >2.5 fold)	B (B indicates 0.70-1.1 fold)	B (B indicates 1.24-1.39 fold)
CO[C@H]1C[C@](c2cccc(N3Cc4c(cc(CN5CCC(F)(F)[C@H](C)C5)cc4C(F)(F)F)C3=O)c2)(c2nncn2C)C1 [Compound 36, 6-(((R)-4,4-difluoro-3-methylpiperidin-1-yl)methyl)-2-(3-(trans-3-methoxy-1-(4-methyl-4H-1,2,4-triazol-3-yl)cyclobutyl)phenyl)-4-(trifluoromethyl)isoindolin-1-one]	< 5	–	C (C indicates <20 fold)	C (C indicates <20 fold)	C (C indicates <1.5 fold)	C (C indicates <0.70 fold)	C (C indicates <1.5 fold)	C (C indicates <0.70 fold)	–
CO[C@H]1C[C@](c2cccc(N3Cc4c(cc(CN5CCC[C@H](C)C5)cc4C(F)(F)F)C3=O)c2)(c2nncn2C)C1 [Compound 37, 2-(3-((1r,3S)-3-methoxy-1-(4-methyl-4H-1,2,4-triazol-3-yl)cyclobutyl)phenyl)-6-(((S)-3-methylpiperidin-1-yl)methyl)-4-(trifluoromethyl)isoindolin-1-one]	< 5	B (B indicates 1.24-1.39 fold)	B (B indicates 20-35 fold)	B (B indicates 20-35 fold)	A (A indicates >2.5 fold)	A (A indicates >1.1 fold)	A (A indicates >2.5 fold)	B (B indicates 0.70-1.1 fold)	–
